Data published in patent publication US8765779B2, “Tricyclic derivatives and their pharmaceutical use and compositions” (Cephalon, Inc., priority 2009, dated 2014).
Structures can show the parent of a compound that is named as a salt. Where two headings read alike, the source gives them in different places.

Molecular target: T1, human 5-HT6 receptor (Homo sapiens, UniProt P50406)
T1 construct: host or cells: CHO-K1 cells, stably transfected; membranes prepared in house
Test: Human 5-HT6 Receptor Binding Assay ([3H]LSD displacement, scintillation beads)
Settings: membranes of CHO-K1 cells with recombinant human 5-HT6, 4 nM [3H]LSD, read-out: h5-HT6 (Ki)

T1 sequence (P50406 whole entry): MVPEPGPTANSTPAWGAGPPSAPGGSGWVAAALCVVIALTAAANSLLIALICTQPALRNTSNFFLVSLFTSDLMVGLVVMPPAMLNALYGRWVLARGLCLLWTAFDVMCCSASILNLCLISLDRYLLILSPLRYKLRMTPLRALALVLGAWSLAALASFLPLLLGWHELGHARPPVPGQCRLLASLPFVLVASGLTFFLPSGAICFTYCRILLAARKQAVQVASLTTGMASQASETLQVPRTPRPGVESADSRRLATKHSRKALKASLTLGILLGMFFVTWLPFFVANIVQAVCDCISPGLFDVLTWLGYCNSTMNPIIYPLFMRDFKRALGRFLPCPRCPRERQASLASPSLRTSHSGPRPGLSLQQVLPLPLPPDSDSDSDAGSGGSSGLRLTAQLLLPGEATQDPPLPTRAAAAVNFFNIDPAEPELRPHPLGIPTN

Row | SMILES | Ki (Table 1, class symbols) [nM] | Ki (specific data) [nM]
1 | CC1(C)NCCc2c1oc1cc(S(=O)(=O)c3ccc(F)c(Cl)c3)ccc21 [Example 18, 7-[(3-chloro-4-fluorophenyl)sulfonyl]-1,1-dimethyl-1,2,3,4-tetrahydro[1]benzofuro[2,3-c]pyridine] | < 500 | –
2 | Cc1cccc(S(=O)(=O)c2ccc3c4c(oc3c2)C(C)(C)NCC4)n1 [Example 19, 1,1-dimethyl-7-[(6-methylpyridin-2-yl)sulfonyl]-1,2,3,4-tetrahydro[1]benzofuro[2,3-c]pyridine] | < 500 | –
3 | O=S(=O)(c1cccc(F)c1)c1ccc2c3c(oc2c1)C1(CCC1)NCC3 [Example 25, 7-[(3-fluorophenyl)sulfonyl]-3,4-dihydro-2H-spiro[1-benzofuro[2,3-c]pyridine-1,1′-cyclobutane]] | < 500 | –
4 | CC(C)Oc1cccc(S(=O)(=O)c2ccc3c4c(oc3c2)C2(CCC2)NCC4)c1 [Example 26, 7-{[3-(propan-2-yloxy)phenyl]sulfonyl}-3,4-dihydro-2H-spiro[1-benzofuro[2,3-c]pyridine-1,1′-cyclobutane]] | < 500 | –
5 | O=S(=O)(c1cccc(F)c1)c1ccc2c3c(oc2c1)C1(CCCC1)NCC3 [Example 28, 7-[(3-fluorophenyl)sulfonyl]-3,4-dihydro-2H-spiro[1-benzofuro[2,3-c]pyridine-1,1′-cyclopentane]] | < 500 | –
6 | O=S1(=O)CCC2(CC1)NCCc1c2oc2cc(S(=O)(=O)c3cccc(F)c3)ccc12 [Example 38, 7-[(3-fluorophenyl)sulfonyl]-2′,3,3′,4,5′,6′-hexahydro-2H-spiro[1-benzofuro[2,3-c]pyridine-1,4′-thiopyran] 1′,1′-dioxide] | < 500 | –
7 | COCC1(COC)NCCc2c1oc1cc(S(=O)(=O)c3cccc(F)c3)ccc21 [Example 39, 7-[(3-fluorophenyl)sulfonyl]-1,1-bis(methoxymethyl)-1,2,3,4-tetrahydro[1]benzofuro[2,3-c]pyridine] | < 500 | –
8 | CC(=O)N1CCC2(CC1)NCCc1c2oc2cc(S(=O)(=O)c3cccc(F)c3)ccc12 [Example 41, 1-{7-[(3-fluorophenyl)sulfonyl]-3,4-dihydro-1′H,2H-spiro[1-benzofuro[2,3-c]pyridine-1,4′-piperidin]-1′-yl}ethanone] | < 500 | –
9 | CC1(C)NCCc2c1oc1ccc(S(=O)(=O)c3cccc(F)c3)cc21 [Example 42, 6-[(3-fluorophenyl)sulfonyl]-1,1-dimethyl-1,2,3,4-tetrahydro[1]benzofuro[2,3-c]pyridine] | 500 to 1000 | –
10 | O=S(=O)(c1cccc(F)c1)c1ccc2c3c(oc2c1)C1(CCOCC1)NCC3 [Example 43, 7-[(3-fluorophenyl)sulfonyl]-2′,3,3′,4,5′,6′-hexahydro-2H-spiro[1-benzofuro[2,3-c]pyridine-1,4′-pyran]] | < 500 | –
11 | CC(C)Oc1cccc(S(=O)(=O)c2ccc3c4c(oc3c2)C2(CCOCC2)NCC4)c1 [Example 44, 7-{[3-(propan-2-yloxy)phenyl]sulfonyl}-2′,3,3′,4,5′,6′-hexahydro-2H-spiro[1-benzofuro[2,3-c]pyridine-1,4′-pyran]] | < 500 | –
12 | CC12CCNCC1Oc1ccc(S(=O)(=O)c3ccccc3)cc12 (centres unmarked) [Example 62, 4a-Methyl-6-(phenylsulfonyl)-1,2,3,4,4a,9a-hexahydro[1]benzofuro[2,3-c]pyridine hydrochloride] | > 1000 | –
13 | COc1cc(OC(C)C)cc(S(=O)(=O)c2ccc3c(c2)OC2CNCCC32)c1 (centres unmarked) [Example 77] | < 500 | –
14 | COc1cc(OC(C)C)cc(S(=O)(=O)c2ccc3c(c2)OC2CNCCC32)c1 (centres unmarked) [Example 78] | < 500 | –
15 | O=S(=O)(c1cc(F)cc(F)c1)c1ccc2c3c(oc2c1)CNCC3 [Example 107, 7-(3,5-Difluoro-benzenesulfonyl)-1,2,3,4-tetrahydro-benzo[4,5]furo[2,3-c]pyridine hydrochloride] | < 500 | –
16 | O=S(=O)(c1cccc(Cl)c1)c1ccc2c(c1)OC1CNCCC21 (centres unmarked) [Example 112] | < 500 | –
17 | O=S(=O)(c1ccc2c(c1)OC1CNCCC21)c1ccccc1Cl (centres unmarked) [Example 113] | < 500 | –
18 | O=S(=O)(c1ccc2c(c1)OC1CNCCC21)c1cccc2ccccc12 (centres unmarked) [Example 114] | < 500 | –
19 | COc1ccc(S(=O)(=O)c2ccc3c(c2)OC2CNCCC32)cc1OC (centres unmarked) [Example 115] | > 1000 | –
20 | O=S(=O)(c1ccc(Oc2ccccc2)cc1)c1ccc2c(c1)OC1CNCCC21 (centres unmarked) [Example 116] | < 500 | –
21 | O=S(=O)(c1cccc(F)c1)c1ccc2c(c1)OC1CNCCC21 (centres unmarked) [Example 117] | < 500 | –
22 | COc1cccc(S(=O)(=O)c2ccc3c(c2)OC2CNCCC32)c1 (centres unmarked) [Example 118] | < 500 | –
23 | O=S(=O)(c1ccc2c(c1)OCCO2)c1ccc2c(c1)OC1CNCCC21 (centres unmarked) [Example 119] | < 500 | –
24 | O=S(=O)(c1ccc(Cl)c(Cl)c1)c1ccc2c(c1)OC1CNCCC21 (centres unmarked) [Example 120] | < 500 | –
25 | Cc1ccc(S(=O)(=O)c2ccc3c(c2)OC2CNCCC32)cc1 (centres unmarked) [Example 121] | < 500 | –
26 | O=S(=O)(c1ccc2c(c1)OC1CNCCC21)c1ccc2ccccc2c1 (centres unmarked) [Example 122] | < 500 | –
27 | O=S(=O)(c1ccc2c(c1)OC1CNCCC21)c1cccc(Cl)c1Cl (centres unmarked) [Example 123] | < 500 | –
28 | O=[N+]([O-])c1ccc(S(=O)(=O)c2ccc3c(c2)OC2CNCCC32)cc1 (centres unmarked) [Example 124] | > 1000 | –
29 | CC(C)c1ccc(S(=O)(=O)c2ccc3c(c2)OC2CNCCC32)cc1 (centres unmarked) [Example 125] | < 500 | –
30 | O=S(=O)(c1cccc(C(F)(F)F)c1)c1ccc2c(c1)OC1CNCCC21 (centres unmarked) [Example 126] | < 500 | –

Now from value to compound:

Row | Ki (Table 1, class symbols) [nM] | Ki (specific data) [nM] | SMILES
31 | < 500 | – | O=S(=O)(c1ccc(F)c(Cl)c1)c1ccc2c(c1)OC1CNCCC21 (centres unmarked) [Example 127]
32 | < 500 | – | O=S(=O)(c1ccc(F)c(F)c1)c1ccc2c(c1)OC1CNCCC21 (centres unmarked) [Example 128]
33 | 500 to 1000 | – | COc1ccc(S(=O)(=O)c2ccc3c(c2)OC2CNCCC32)cc1F (centres unmarked) [Example 129]
34 | < 500 | – | Cc1ccc(F)cc1S(=O)(=O)c1ccc2c(c1)OC1CNCCC21 (centres unmarked) [Example 130]
35 | < 500 | – | O=S(=O)(c1cc(F)cc(F)c1)c1ccc2c(c1)OC1CNCCC21 (centres unmarked) [Example 131]
36 | > 1000 | – | COc1ccc(F)cc1S(=O)(=O)c1ccc2c(c1)OC1CNCCC21 (centres unmarked) [Example 132]
37 | < 500 | – | O=S(=O)(c1cccc(Br)c1)c1ccc2c(c1)OC1CNCCC21 (centres unmarked) [Example 133]
38 | < 500 | – | O=S(=O)(c1ccc(F)cc1)c1ccc2c(c1)OC1CNCCC21 (centres unmarked) [Example 134]
39 | > 1000 | – | [O-][S+](c1ccc2c(c1)OC1CNCCC21)c1cc(Cl)ccc1Cl (centres unmarked) [Example 135]
40 | < 500 | – | CC(C)Oc1cccc(S(=O)(=O)c2ccc3c(c2)OC2CNCCC32)c1 (centres unmarked) [Example 136]
41 | < 500 | – | Cc1cc(S(=O)(=O)c2ccc3c(c2)OC2CNCCC32)ccc1F (centres unmarked) [Example 137]
42 | > 1000 | – | COC(=O)c1cccc(S(=O)(=O)c2ccc3c(c2)OC2CNCCC32)c1 (centres unmarked) [Example 138]
43 | > 1000 | – | N#Cc1ccc(S(=O)(=O)c2ccc3c(c2)OC2CNCCC32)cc1 (centres unmarked) [Example 139]
44 | < 500 | – | CC(=O)Nc1ccc(S(=O)(=O)c2ccc3c(c2)OC2CNCCC32)cc1 (centres unmarked) [Example 140]
45 | < 500 | – | Cc1cccc(S(=O)(=O)c2ccc3c(c2)OC2CNCCC32)c1 (centres unmarked) [Example 141]
46 | > 1000 | – | [O-][S+](c1ccc2c(c1)OC1CNCCC21)c1cc(F)ccc1F (centres unmarked) [Example 142]
47 | < 500 | – | O=S(=O)(c1ccc2c(c1)OC1CNCCC21)c1cc(F)ccc1F (centres unmarked) [Example 143]
48 | > 1000 | – | [O-][S+](c1ccc2c(c1)OC1CNCCC21)c1c(F)c(F)cc(F)c1F (centres unmarked) [Example 144]
49 | > 1000 | – | O=S(=O)(c1ccc(-c2ccccc2)cc1)c1ccc2c(c1)OC1CNCCC21 (centres unmarked) [Example 145]

Row | Ki (Table 1, class symbols) [nM] | Ki (specific data) [nM] | SMILES
50 | < 500 | – | O=S(=O)(c1ccc2c(c1)OC1CNCCC21)c1ccccc1F (centres unmarked) [Example 146]
51 | < 500 | – | O=S(=O)(c1cc(F)cc(Cl)c1)c1ccc2c(c1)OC1CNCCC21 (centres unmarked) [Example 147]
52 | < 500 | – | O=S(=O)(c1ccc2c(c1)OC1CNCCC21)c1ccc(Cl)c(C(F)(F)F)c1 (centres unmarked) [Example 148]
53 | < 500 | – | O=S(=O)(c1cccc(OC(F)(F)F)c1)c1ccc2c(c1)OC1CNCCC21 (centres unmarked) [Example 149, 7-{[3-(trifluoromethoxy)phenyl]sulfo-nyl}-1,2,3,4,4a,9a-hexahydro[1]benzofuro[2,3-c]pyridine]
54 | < 500 | – | O=S(=O)(c1ccc2c(c1)OC1CNCCC21)c1c(F)c(F)cc(F)c1F (centres unmarked) [Example 150]
55 | 500 to 1000 | – | O=S(=O)(c1ccc(C(F)(F)F)cc1)c1ccc2c(c1)OC1CNCCC21 (centres unmarked) [Example 151]
56 | < 500 | – | O=S(=O)(c1ccc2c(c1)OC1CNCCC21)c1ccccc1-c1ccccc1 (centres unmarked) [Example 152]
57 | < 500 | – | O=S(=O)(c1ccc2c(c1)OC1CNCCC21)c1ccccc1-c1ccccc1 (centres unmarked) [Example 153]
58 | > 1000 | – | O=S(=O)(c1ccc2c(c1)OC1CNCCC21)C1CCCCC1 (centres unmarked) [Example 154]
59 | < 500 | – | O=S(=O)(c1cc(Cl)cc(Cl)c1)c1ccc2c(c1)OC1CNCCC21 (centres unmarked) [Example 155]
60 | < 500 | – | O=S(=O)(c1ccc2c(c1)OC1CNCCC21)c1cccc(Cl)c1Cl (centres unmarked) [Example 156]
61 | < 500 | – | O=S(=O)(c1cc(F)cc(Cl)c1)c1ccc2c(c1)OC1CNCCC21 (centres unmarked) [Example 157]
62 | < 500 | – | O=S(=O)(c1cc(F)cc(F)c1)c1ccc2c(c1)OC1CNCCC21 (centres unmarked) [Example 158]
63 | < 500 | – | CC(C)Oc1cccc(S(=O)(=O)c2ccc3c(c2)OC2CNCCC32)c1 (centres unmarked) [Example 159]
64 | < 500 | – | O=S(=O)(c1cccc(OC(F)(F)F)c1)c1ccc2c(c1)OC1CNCCC21 (centres unmarked) [Example 160, 7-{[3-(trifluoromethoxy)phenyl]sulfo-nyl}-1,2,3,4,4a,9a-hexahydro[1]benzofuro[2,3-c]pyridine]
65 | < 500 | 44 | O=S(=O)(c1cccc(C(F)(F)F)c1)c1ccc2c(c1)OC1CNCCC21 (centres unmarked) [Example 161, 7-{[3-(trifluoromethyl)phenyl]sulfonyl}-1,2,3,4,4a,9a-hexahydro[1]benzofuro[2,3-c]pyridine]
66 | < 500 | – | O=S(=O)(c1ccc2c(c1)OC1CNCCC21)c1cccc(Cl)c1Cl (centres unmarked) [Example 162]
67 | < 500 | – | O=S(=O)(c1cc(F)cc(Cl)c1)c1ccc2c(c1)OC1CNCCC21 (centres unmarked) [Example 163]
